The text below walks through data of the RepoRT retention time repository (doi:10.1021/es4044374).

The nature of the series: RP, Waters XBridge C18, 50 × 2.1 mm, 3.5 µm, 30 °C, 0.2 mL/min, estimated dead time 0.55 min; A: water + 0.1% formic acid, pH 3; B: methanol + 0.1% formic acid, pH 3; gradient (min/%B) 0/10 4/50 17/95 25/95 25.1/10 30/10. The following applies: stereoisomer not certain.
Turning to `O=C(O)C(F)(F)C(F)(F)C(F)(F)C(F)(F)C(F)(F)C(F)(F)C(F)(F)C(F)(F)C(F)(F)F` [Perfluorodecanoic acid], the LC retention time is 15.2 min.
With `CC(C)(C)C(O)(CCc1ccc(Cl)cc1)Cn1cncn1` (stereo not drawn) [Tebuconazole], the LC retention time was 12.8 min.
For `CCOc1nc2cccc(C(=O)O)c2n1Cc1ccc(-c2ccccc2-c2nn[nH]n2)cc1` [Candesartan], the LC retention time is 9.3 min.
Turning to `CC(C)(C)C(=O)C(Oc1ccc(Cl)cc1)n1ccnc1` (stereo not drawn) [Climbazol], the LC retention time is 8.1 min.
Take `CCCN(CCC)c1c([N+](=O)[O-])cc(C(F)(F)F)cc1[N+](=O)[O-]` [Trifluralin]: the LC retention time was 16.5 min.
Regarding `CC(Cc1ccc(C(C)(C)C)cc1)CN1CC(C)OC(C)C1` (stereo not drawn) [Fenpropimorph], the LC retention time is 9.4 min.
On to `CS(=O)(=O)c1ccc(C(=O)C2C(=O)CCCC2=O)c(Cl)c1` [Sulcotrione], for which the LC retention time was 6.8 min.
Take `CCOP(=S)(OCC)Oc1nc(Cl)c(Cl)cc1Cl` [Chlorpyrifos]: the LC retention time is 16 min.
For `CSc1nc(N)nc(NC(C)(C)C)n1` [Irgarol-descyclopropyl], the LC retention time is 6.7 min.
As to `CNCCCC(C#N)(c1ccc(OC)c(OC)c1)C(C)C` (stereo not drawn) [D617], the LC retention time was 6.3 min.
To `C1=Cc2ccccc2Nc2ccccc21` [Iminostilbene] belongs 11 min; to `CC(O)C(=O)Nc1c(I)c(C(=O)NC(CO)CO)c(I)c(C(=O)NC(CO)CO)c1I` (stereo not drawn) [Iopamidol], 1.2 min; to `CC1(C)C(=O)Oc2ccc(OS(C)(=O)=O)cc21` [Ethofumesate-2-keto], 6 min.
With `O=C(Nc1ccc(Cl)cc1)Nc1ccc(Cl)c(Cl)c1` [Triclocarban], the LC retention time was 14.8 min.
For `CCNc1nc(Cl)nc(NC(C)(C)C)n1` [Terbutylazine], the LC retention time is 10.1 min.
For `Cc1cc(Cl)ccc1OCC(=O)O` [MCPA], the LC retention time was 9.5 min.
To `COc1cc(Cc2cnc(N)nc2N)cc(OC)c1OC` [Trimethoprim] belongs 3.8 min.
To `Clc1ccccc1C(c1ccccc1)(c1ccccc1)n1ccnc1` [Clotrimazole] belongs 8.8 min.
As to `N#CCNC(=O)c1cnccc1C(F)(F)F` [Flonicamid], the LC retention time was 3.9 min.
In the case of `O=C1NCCN1Cc1ccc(Cl)nc1` [Imidacloprid-urea], the LC retention time was 4.6 min.
In the case of `O=C(O)C(F)(F)C(F)(F)C(F)(F)C(F)(F)C(F)(F)F` [Perfluorohexanoic acid], the LC retention time was 9.3 min.
Turning to `O=C(O)c1cc(Br)c(O)c(Br)c1` [3,5-Dibromo-4-hydroxybenzoic acid], the LC retention time is 7.3 min.
The figure for `COc1cc(OC)nc(NC(=O)NS(=O)(=O)c2ncccc2C(=O)N(C)C)n1` [Nicosulfuron] is 7.1 min; for `CCc1cccc(C)c1N(C(=O)CCl)C(C)COC` (stereo not drawn) [Metolachlor] it is 11.8 min; for `O=S(=O)(O)c1ccc2ccc(S(=O)(=O)O)cc2c1` [2,7-Naphthalenedisulfonic acid] it is 1.2 min.
On to `COc1c(Cl)ccc(Cl)c1C(=O)O` [Dicamba], for which the LC retention time is 7 min.
To `CC(=O)SC1CC2=CC(=O)CCC2(C)C2CCC3(C)C(CCC34CCC(=O)O4)C12` (stereo not drawn) [Spironolactone] belongs 10.2 min; to `Nc1ccc(S(=O)(=O)Nc2ccccn2)cc1` [Sulfapyridine], 2.9 min.
Take `CC(=O)Nc1ccc(O)cc1` [Paracetamol]: the LC retention time is 2.2 min.
In the case of `CC(C)(C)Nc1nc(N)[nH]c(=O)n1` [Terbutylazine-desethyl-2-hydroxy], the LC retention time is 2.9 min.
For the compound `NC(=O)Nc1ccc(Cl)c(Cl)c1` [Diuron-desdimethyl], the LC retention time was 8.3 min.
To `Cc1cc(NS(=O)(=O)c2ccc(N)cc2)no1` [Sulfamethoxazole] belongs 4.6 min; to `COCCN(C(=O)C(=O)O)c1c(C)cccc1C` [Dimethachlor OXA], 6.6 min; to `CCOC1Oc2ccc(OS(C)(=O)=O)cc2C1(C)C` (stereo not drawn) [Ethofumesate], 10 min.
`CC(O)(CS(=O)(=O)c1ccc(F)cc1)C(=O)Nc1ccc(C#N)c(C(F)(F)F)c1` (stereo not drawn) [Bicalutamide]: the LC retention time is 9.9 min.
For the compound `O=c1[nH]c(Cl)c(Cl)cc1Cl` [3,5,6-Trichloro-2-pyridinol], the LC retention time was 9.7 min.
As for `O=P(O)(O)OCCC(F)(F)C(F)(F)C(F)(F)C(F)(F)C(F)(F)C(F)(F)F` [Perfluorooctyl phosphate], the LC retention time was 12.1 min.
With `Nc1ccc(S(=O)(=O)O)cc1` [Sulfanilic acid], the LC retention time is 0.9 min.
The figure for `CC(C)N(C(=O)CCl)c1ccccc1` [Propachlor] is 8.6 min.
The figure for `CNC(=O)ON=C(C)SC` [Methomyl] is 3.6 min; for `COC(=O)C1C(OC(=O)c2ccccc2)CC2CCC1N2C` (stereo not drawn) [Cocaine] it is 5 min.
To `CN(CC(=O)O)S(=O)(=O)C(F)(F)C(F)(F)C(F)(F)C(F)(F)C(F)(F)C(F)(F)C(F)(F)C(F)(F)F` [N-methylperfluorooctane sulfonamidoacetic acid] belongs 16.5 min; to `COc1cc(NS(=O)(=O)c2ccc(N)cc2)nc(OC)n1` [Sulfadimethoxine], 5.7 min; to `O=[N+]([O-])/N=C1\NCCN1Cc1ccc(Cl)nc1` [Imidacloprid], 4.8 min.
For the compound `CC(Oc1ccc(Oc2ccc(C(F)(F)F)cn2)cc1)C(=O)O` (stereo not drawn) [Fluazifop], the LC retention time was 10.9 min.
For `OC(Cn1cncn1)(Cn1cncn1)c1ccc(F)cc1F` [Fluconazole], the LC retention time was 5.3 min.
As for `CCCOC(=O)NCCCN(C)C` [Propamocarb], the LC retention time was 2.4 min.
On to `CN1COCN(Cc2cnc(Cl)s2)C1=N[N+](=O)[O-]` [Thiamethoxam], for which the LC retention time was 4.1 min.
In the case of `COC(=O)Nc1cccc(OC(=O)Nc2cccc(C)c2)c1` [Phenmedipham], the LC retention time is 9.5 min.
On to `CN(C)C(=O)Nc1ccc(Cl)c(Cl)c1` [Diuron], for which the LC retention time is 8.9 min.
On to `CN(C)S(=O)(=O)Nc1ccccc1` [N,N-Dimethyl-N'-phenylsulfamide], for which the LC retention time was 6.3 min.
Regarding `COC(=O)c1ccccc1S(N)(=O)=O` [2-Aminosulfonyl-benzoic acid methyl ester], the LC retention time is 4.5 min.
For `NC(=O)N1c2ccccc2C=Cc2ccccc21` [Carbamazepine], the LC retention time was 7.8 min.
Turning to `N#Cc1nn(-c2c(Cl)cc(C(F)(F)F)cc2Cl)c(N)c1C(F)(F)F` [Fipronil-desulfinyl], the LC retention time was 12.5 min.
The figure for `O=C(O)CNS(=O)(=O)C(F)(F)C(F)(F)C(F)(F)C(F)(F)C(F)(F)C(F)(F)C(F)(F)C(F)(F)F` [Perfluorooctane sulfonamidoacetic acid] is 15.9 min; for `CCc1cccc(C)c1N(C(=O)C(=O)O)C(C)COC` (stereo not drawn) [Metolachlor OXA] it is 9.3 min; for `CCC1(c2ccccc2)C(=O)NCNC1=O` [Primidone] it is 5.4 min.
As to `Cc1c(N)c(=O)n(-c2ccccc2)n1C` [4-Aminoantipyrine], the LC retention time was 2.6 min.
`COCC(C)N(C(=O)C(=O)O)c1c(C)csc1C` (stereo not drawn) [Dimethenamid OXA]: the LC retention time was 7.5 min.
`CNC1(c2ccccc2Cl)CCCCC1=O` (stereo not drawn) [Ketamine]: the LC retention time was 4.6 min.
As to `COC(=O)C1C2CC3c4[nH]c5cc(OC)ccc5c4CCN3CC2CC(OC(=O)c2cc(OC)c(OC)c(OC)c2)C1OC` (stereo not drawn) [Reserpine], the LC retention time was 8.3 min.
The figure for `CCN(CC)C(=O)C(C)Oc1cccc2ccccc12` (stereo not drawn) [Napropamid] is 11.7 min; for `Cc1nnc(-c2ccccc2)c(=O)n1N` [Metamitron] it is 4.9 min.
`O=P1(N(CCCl)CCCl)NCCCO1` (stereo not drawn) [Cyclophosphamide]: the LC retention time was 6.3 min.
In the case of `COCCOCCOC` [Diglyme], the LC retention time is 3.2 min.
On to `CCNc1nc(NC(C)(C)C)[nH]c(=O)n1` [Terbutylazine-2-hydroxy], for which the LC retention time was 5.6 min.
Consider `COCC(C)N(C(=O)CCl)c1c(C)csc1C` (stereo not drawn) [Dimethenamid-P], for which the LC retention time is 10 min.
Regarding `CC(C)N(C(=O)CS(=O)(=O)O)c1ccccc1` [Propachlor ESA], the LC retention time is 5.9 min.
For the compound `Cc1cc(Cl)ccc1OCCCC(=O)O` [MCPB], the LC retention time is 11.9 min.
The figure for `CCNC(=O)NC(=O)C(C#N)=NOC` [Cymoxanil] is 5.6 min; for `CCN(CC)CCNC(=O)c1cc(Cl)c(N)cc1OC` [Metoclopramide] it is 4.3 min.
With `CC(C)(Oc1ccc(CCNC(=O)c2ccc(Cl)cc2)cc1)C(=O)O` [Bezafibrate], the LC retention time was 10.6 min.
With `O=c1[nH]sc2ccccc12` [Benzisothiazolone (BIT)], the LC retention time was 5.1 min.
For the compound `CCNc1nc(NCC)nc(OC)n1` [Simeton], the LC retention time was 4.9 min.
`Cn1sc(Cl)cc1=O` [5-Chloro-2-methyl-4-isothiazolin-3-one (CMI)]: the LC retention time is 3.7 min.
Turning to `COC(=O)N(OC)c1ccccc1COc1ccn(-c2ccc(Cl)cc2)n1` [Pyraclostrobin], the LC retention time was 13.4 min.
As to `CCc1cccc(CC)c1N(COC)C(=O)CCl` [Alachlor], the LC retention time was 11.7 min.
As to `CCC1OC(=O)C(C)C(OC2CC(C)(OC)C(O)C(C)O2)C(C)C(OC2OC(C)CC(N(C)C)C2O)C(C)(O)CC(C)C(=O)C(C)C(O)C1(C)O` (stereo not drawn) [Erythromycin], the LC retention time is 8.5 min.
